# Experiments:
# EP4 receptors = biological target: T1, EP4 receptors (Homo sapiens, UniProt P35408); assay: Radioligand binding, [3H]PGE2, EP4 (Ki); details: HEK-293 cells stably expressing EP4, [3H]PGE2
# T1 construct: expressed in transfected cells; membrane pellet
# Procedure: (§1) HEK-293 cells stably expressing the human or feline FP receptor, or EP1, EP2, or EP4 receptors were washed with TME buffer, scraped from the bottom of the flasks, and homogenized for 30 sec using a Brinkman PT 10/35 polytron. TME buffer was added to achieve a final 40 ml volume in the centrifuge tubes (the composition of TME is 100 mM TRIS base, 20 mM MgCl2, […]; 10N HCl is added to achieve a pH of 7.4).
# (§2) The cell homogenate was centrifuged at 19000 r.p.m. for 20 min at 4° C using a Beckman Ti-60 rotor. The resultant pellet was resuspended in TME buffer to give a final 1 mg/ml protein concentration, as determined by Biorad assay. Radioligand binding competition assays vs. [^3H-]17-phenyl PGF2α. (5 nM) were performed in a 100 μl volume for 60 min. Binding reactions were started by adding plasma membrane fraction. The reaction was terminated by the addition of 4 ml ice-cold TRIS-HCl buffer and rapid filtration through glass fiber GF/B filters using a Brandel cell harvester. The filters were washed 3 times with ice-cold buffer and oven dried for one hour.
# (§3) [^3H-] PGE2 (specific activity 180 Ci mmol) was used as the radioligand for EP receptors. [^3H] 17-phenyl PGF2α, was employed for FP receptor binding studies. Binding studies employing EP1, EP2, EP4 and FP receptors were performed in duplicate in at least three separate experiments. A 200 μl assay volume was used. Incubations were for 60 min at 25° C. and were terminated by the addition of 4 ml of ice-cold 50 mM TRIS-HCl, followed by rapid filtration through Whatman GF/B filters and three additional 4 ml washes in a cell harvester (Brandel). Competition studies were performed using a final concentration of 5 nM [^3H]-PGE2, or 5 nM [^3H] 17-phenyl PGF2αand non-specific binding determined with 10^−5M of unlabeled PGE2, or 17-phenyl PGF2α, according to receptor subtype studied.
# EP2 = EP2 (Homo sapiens, UniProt P43116); assay: Competition binding, [3H]PGE2, EP2 (Ki); parameters: expressed in transfected cells; membranes or whole cells; details: HEK 293 cells stably expressing human EP2, [3H]PGE2
# Procedure: Competition binding experiments were performed in a medium containing Hank's balanced salt solution, Hepes 20 mM, pH 7.3, membranes (˜60 μg protein) or 2×10^5 cells from HEK 293 cells stably expressing human EP2 receptors, [^3H]PGE2 (10 nM) and various concentrations of test compounds in a total volume of 300 μl. Reaction mixtures were incubated at 23° C. for 60 min, and were filtered over Whatman GF/B filters under vacuum. Filters were washed three times with 5 ml ice-cold buffer containing 50 mM Tris/HCl (pH 7.3). Non-specific binding was estimated in the presence of excess unlabeled PGE2 (10 μM). Binding data fitted to the binding model for a single class of binding sites, using nonlinear regression analysis. IC50 values thus obtained were converted to Ki using the equation of Ki=(IC50/(1+[L]/KD) where [L] represents PGE2 concentration (10 nM) and KD the dissociation constant for [^3H]PGE2 at human EP2 receptors (40 nM).
# as §1, §2, §3
# hEP4/Gqs5 = biological target: T2, hEP4/Gqs5 (Homo sapiens, UniProt P35408); assay: FLIPR calcium signal, EP4; format: cell-based; details: HEK-293(EBNA); for EC50: read-out: Ca2+ Signal-EC50 (nM) EP4
# T2 construct: expressed in transfected cells
# Procedure: (§4) HEK-293(EBNA) cells, stably expressing one type or subtype of recombinant human prostaglandin receptors (prostaglandin receptors expressed: hDP/Gqs5; hEP1; hEP2/Gqs5; hEP3A/Gqi5; hEP4/Gqs5; hFP; hIP; hTP), were cultured in 100 mm culture dishes in high-glucose DMEM medium containing 10% fetal bovine serum, 2 mM 1-glutamine, 250 μg/ml geneticin (G418) and 200 μg/ml hygromycin B as selection markers, and 100 units/ml penicillin G, 100 μg/ml streptomycin and 0.25 μg/ml amphotericin B.
# (§5) Cells were seeded at a density of 5×10^4 cells per well in Biocoat® Poly-D-lysine-coated black-wall, clear-bottom 96-well plates (Becton-Dickinson) and allowed to attach overnight in an incubator at 37° C. Cells were then washed two times with HBSS-HEPES buffer (Hanks Balanced Salt Solution without bicarbonate and phenol red, 20 mM HEPES, pH 7.4) using a Denley Cellwash plate washer (Labsystems). After 45 minutes of dye-loading in the dark, using the calcium-sensitive dye Fluo-4 AM at a final concentration of 2 μM, plates were washed four times with HBSS-HEPES buffer to remove excess dye leaving 100 μl in each well. Plates were re-equilibrated to 37° C. for a few minutes.
# (§6) Cells were excited with an Argon laser at 488 nm, and emission was measured through a 510-570 nm bandwidth emission filter (FLIPR™, Molecular Devices, Sunnyvale, Calif.). Drug solution was added in a 50 μl volume to each well to give the desired final concentration. The peak increase in fluorescence intensity was recorded for each well. On each plate, four wells each served as negative (HBSS-HEPES buffer) and positive controls (standard agonists: BW245C (hDP); PGE2 (HEP1; hEP2/Gqs5; hEP3A/Gqi5; hEP4/Gqs5); PGF2α (hFP); carbacyclin (hIP); U-46619 (hTP), depending on receptor). The peak fluorescence change in each drug-containing well was then expressed relative to the controls.
# (§7) Compounds were tested in a high-throughput (HTS) or concentration-response (CoRe) format. In the HTS format, forty-four compounds per plate were examined in duplicates at a concentration of 10^−5 M. To generate concentration-response curves, four compounds per plate were tested in duplicates in a concentration range between 10^−5 and 10^−11 M. The duplicate values were averaged. In either, HTS or CoRe format each compound was tested on at least 3 separate plates using cells from different passages to give an n≧3.
# hFP = biological target: T3, hFP (Homo sapiens, UniProt P43088); assay: FLIPR calcium signal, FP; format: cell-based; details: HEK-293(EBNA)
# T3 construct: expressed in transfected cells
# Procedure: as §4, §5, §6, §7
# hTP = biological target: T4, hTP (Homo sapiens, UniProt P21731); assay: FLIPR calcium signal, TP; format: cell-based; details: HEK-293(EBNA); for EC50: read-out: Ca2+ Signal-EC50 (nM) TP
# T4 construct: expressed in transfected cells
# T4 sequence (P21731 1-343): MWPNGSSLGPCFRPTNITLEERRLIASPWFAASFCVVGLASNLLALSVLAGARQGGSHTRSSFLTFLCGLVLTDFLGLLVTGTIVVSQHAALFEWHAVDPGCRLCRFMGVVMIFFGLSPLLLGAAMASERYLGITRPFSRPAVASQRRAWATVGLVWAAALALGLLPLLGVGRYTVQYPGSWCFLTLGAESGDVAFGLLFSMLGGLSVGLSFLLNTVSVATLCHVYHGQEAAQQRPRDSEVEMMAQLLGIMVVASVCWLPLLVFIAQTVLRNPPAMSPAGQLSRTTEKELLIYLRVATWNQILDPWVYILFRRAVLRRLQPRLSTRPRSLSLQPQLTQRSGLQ
# Procedure: as §4, §5, §6, §7
# T2 sequence (P35408 whole entry): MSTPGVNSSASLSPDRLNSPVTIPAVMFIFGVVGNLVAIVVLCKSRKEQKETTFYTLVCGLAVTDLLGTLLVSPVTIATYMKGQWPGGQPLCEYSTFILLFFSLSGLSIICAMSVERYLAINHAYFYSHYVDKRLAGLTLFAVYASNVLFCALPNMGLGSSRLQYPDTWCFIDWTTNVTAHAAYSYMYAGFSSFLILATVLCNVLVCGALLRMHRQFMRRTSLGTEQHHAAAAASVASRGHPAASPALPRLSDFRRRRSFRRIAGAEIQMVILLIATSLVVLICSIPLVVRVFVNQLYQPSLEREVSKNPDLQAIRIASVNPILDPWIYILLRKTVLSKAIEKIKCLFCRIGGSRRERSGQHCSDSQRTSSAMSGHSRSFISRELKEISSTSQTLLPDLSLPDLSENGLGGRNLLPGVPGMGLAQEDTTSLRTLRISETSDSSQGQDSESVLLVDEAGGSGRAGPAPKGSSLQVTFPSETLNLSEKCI
# T1 sequence (P35408 whole entry): as above
# EP2, sequence (P43116 whole entry): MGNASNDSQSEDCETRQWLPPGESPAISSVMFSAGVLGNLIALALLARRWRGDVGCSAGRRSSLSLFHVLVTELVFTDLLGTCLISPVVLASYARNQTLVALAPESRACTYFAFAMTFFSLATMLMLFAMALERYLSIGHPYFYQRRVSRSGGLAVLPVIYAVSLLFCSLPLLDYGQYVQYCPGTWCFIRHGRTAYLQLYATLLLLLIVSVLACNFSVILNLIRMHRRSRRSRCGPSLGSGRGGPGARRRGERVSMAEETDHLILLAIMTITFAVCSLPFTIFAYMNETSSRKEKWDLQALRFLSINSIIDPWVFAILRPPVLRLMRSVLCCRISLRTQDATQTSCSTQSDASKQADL
# T3 sequence (P43088 whole entry): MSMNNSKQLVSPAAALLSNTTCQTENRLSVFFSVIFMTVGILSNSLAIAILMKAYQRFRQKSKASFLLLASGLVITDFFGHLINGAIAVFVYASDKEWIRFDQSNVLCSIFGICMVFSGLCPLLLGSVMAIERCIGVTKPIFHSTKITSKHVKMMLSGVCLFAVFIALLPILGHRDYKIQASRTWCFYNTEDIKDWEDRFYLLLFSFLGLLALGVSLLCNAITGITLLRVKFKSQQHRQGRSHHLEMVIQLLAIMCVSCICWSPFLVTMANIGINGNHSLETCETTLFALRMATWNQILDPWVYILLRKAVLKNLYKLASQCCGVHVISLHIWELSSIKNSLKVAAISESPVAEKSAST
structure (smiles),measurement,setting,value
"O=C(O)CCC/C=C\C[C@@H]1[C@@H](c2ccc(C(O)CCC3CCCCC3)cc2)[C@H](O)C[C@H]1Cl (stereo partly drawn) [Entry 15, (Z)-7-{(1R,2S,3R,5R)-5-Chloro-2-[4-(3-cyclohexyl-1-hydroxy-propyl)-phenyl]-3-hydroxy-cyclopentyl}-hept-5-enoic acid]",Ki,EP4 receptors,3810 nM
same,Ki,EP2,260 nM
same,Ca2+ Signal-EC50 (nM) EP4,hEP4/Gqs5,not active
same,Ca2+ Signal-EC50 (nM) FP,hFP,not active
same,Ca2+ Signal-EC50 (nM) TP,hTP,not active
"CCCCC(O)C(C)(C)c1ccc([C@@H]2[C@@H](C/C=C\CCCC(=O)O)[C@H](Cl)C[C@H]2O)cc1 (mixture of isomers) [Entry 32, (Z)-7-{(1R,2S,3R,5R)-5-Chloro-3-hydroxy-2-[4-(2-hydroxy-1,1-dimethyl-hexyl)-phenyl]-cyclopentyl}-hept-5-enoic acid]",Ki,EP4 receptors,9640 nM
same,Ki,EP2,225 nM
same,Ca2+ Signal-EC50 (nM) EP4,hEP4/Gqs5,not active
same,Ca2+ Signal-EC50 (nM) FP,hFP,not active
same,Ca2+ Signal-EC50 (nM) TP,hTP,not active
"CCCCCC(O)c1ccc([C@@H]2[C@@H](CCCCCCC(=O)O)[C@H](Cl)C[C@H]2O)cc1 (stereo partly drawn) [Entry 14, 7-{(1R,2S,3R,5R)-5-Chloro-3-hydroxy-2-[4-(1-hydroxy-hexyl)-phenyl]-cyclopentyl}-heptanoic acid]",Ki,EP4 receptors,8610 nM
same,Ki,EP2,287 nM
same,EC50,hEP4/Gqs5,> 10000 nM
same,Ca2+ Signal-EC50 (nM) FP,hFP,not active
same,Ca2+ Signal-EC50 (nM) TP,hTP,not active
"CCCCC(O)c1cccc([C@@H]2[C@@H](C/C=C\CCCC(=O)O)[C@H](Cl)C[C@H]2O)c1 (stereo partly drawn) [Entry 30, (Z)-7-{(1R,2S,3R,5R)-5-Chloro-3-hydroxy-2-[3-(1-hydroxy-pentyl)-phenyl]-cyclopentyl}-hept-5-enoic acid]",Ki,EP4 receptors,> 10000 nM
same,Ki,EP2,1260 nM
same,Ca2+ Signal-EC50 (nM) EP4,hEP4/Gqs5,not active
same,Ca2+ Signal-EC50 (nM) FP,hFP,not active
same,EC50,hTP,3750 nM
"O=C(O)CCCCCC[C@@H]1[C@@H](c2ccc(C(O)CCC3CCCCC3)cc2)[C@H](O)C[C@H]1Cl (stereo partly drawn) [Entry 16, 7-{(1R,2S,3R,5R)-5-Chloro-2-[4-(3-cyclohexyl-1-hydroxy-propyl)-phenyl]-3-hydroxy-cyclopentyl}-heptanoic acid]",Ki,EP4 receptors,5580 nM
same,Ki,EP2,1290 nM
same,Ca2+ Signal-EC50 (nM) EP4,hEP4/Gqs5,not active
same,Ca2+ Signal-EC50 (nM) FP,hFP,not active
same,Ca2+ Signal-EC50 (nM) TP,hTP,not active
"CCCCCC(O)c1ccc([C@@H]2[C@@H](C/C=C\CCCC(=O)O)[C@H](Cl)C[C@H]2O)cc1 (single isomer, unassigned) [Entry 12]",Ki,EP4 receptors,> 10000 nM
same,Ki,EP2,209 nM
same,EC50,hEP4/Gqs5,> 10000 nM
same,Ca2+ Signal-EC50 (nM) FP,hFP,not active
same,Ca2+ Signal-EC50 (nM) TP,hTP,not active
"CCCCCC(O)c1cccc([C@@H]2[C@@H](C/C=C\CCCC(=O)O)[C@H](Cl)C[C@H]2O)c1 (stereo partly drawn) [Entry 29, (Z)-7-{(1R,2S,3R,5R)-5-Chloro-3-hydroxy-2-[3-(1-hydroxy-hexyl)-phenyl]-cyclopentyl}-hept-5-enoic acid]",Ki,EP4 receptors,> 10000 nM
same,Ki,EP2,1390 nM
same,Ca2+ Signal-EC50 (nM) EP4,hEP4/Gqs5,not active
same,Ca2+ Signal-EC50 (nM) FP,hFP,not active
same,Ca2+ Signal-EC50 (nM) TP,hTP,not active
"O=C(O)CCC/C=C\C[C@@H]1[C@@H](c2ccc(C(O)CC3CCCCC3)cc2)[C@H](O)C[C@H]1Cl (mixture of isomers) [Entry 17, (Z)-7-{(1R,2S,3R,5R)-5-Chloro-2-[4-(2-cyclohexyl-1-hydroxy-ethyl)-phenyl]-3-hydroxy-cyclopentyl}-hept-5-enoic acid]",Ki,EP4 receptors,15900 nM
same,Ki,EP2,483 nM
same,Ca2+ Signal-EC50 (nM) EP4,hEP4/Gqs5,not active
same,Ca2+ Signal-EC50 (nM) FP,hFP,not active
same,Ca2+ Signal-EC50 (nM) TP,hTP,not active
"CCCCCC(O)c1ccc([C@@H]2[C@@H](C/C=C\CCCC(=O)O)[C@H](Cl)C[C@@H]2O)cc1 (stereo partly drawn) [Entry 34, (Z)-7-{(1R,2S,3S,5R)-5-Chloro-3-hydroxy-2-[4-(1-hydroxy-hexyl)-phenyl]-cyclopentyl}-hept-5-enoic acid]",Ki,EP2,12 nM
same,Ca2+ Signal-EC50 (nM) EP4,hEP4/Gqs5,not active
same,Ca2+ Signal-EC50 (nM) FP,hFP,not active
same,EC50,hTP,6930 nM
"CCCCCC(O)c1ccc([C@@H]2[C@@H](Cc3cccc(CCC(=O)O)c3)[C@H](Cl)C[C@H]2O)cc1 (stereo partly drawn) [Entry 3, 3-(3-{(1R,2S,3R,5R)-5-Chloro-3-hydroxy-2-[4-(1-hydroxy-hexyl)-phenyl]-cyclopentylmethyl}-phenyl)-propionic acid]",Ki,EP4 receptors,3950 nM
same,Ki,EP2,2780 nM
same,Ca2+ Signal-EC50 (nM) FP,hFP,not active
same,Ca2+ Signal-EC50 (nM) TP,hTP,not active
"CCCCC(O)c1ccc([C@@H]2[C@@H](C/C=C\CCCC(=O)O)[C@H](Cl)C[C@H]2O)cc1 (mixture of isomers) [Entry 27, (Z)-7-{(1R,2S,3R,5R)-5-Chloro-3-hydroxy-2-[4-(1-hydroxy-pentyl)-phenyl]-cyclopentyl}-hept-5-enoic acid]",Ki,EP2,589 nM
same,Ca2+ Signal-EC50 (nM) EP4,hEP4/Gqs5,not active
same,Ca2+ Signal-EC50 (nM) FP,hFP,not active
same,Ca2+ Signal-EC50 (nM) TP,hTP,not active
"CCCCCC(O)c1ccc([C@@H]2[C@@H](CCCc3ncc(C(=O)O)s3)[C@H](Cl)C[C@H]2O)cc1 (stereo partly drawn) [Entry 5, 2-(3-{(1R,2S,3R,5R)-5-Chloro-3-hydroxy-2-[4-(1-hydroxy-hexyl)-phenyl]-cyclopentyl}-propyl)-thiazole-5-carboxylic acid]",Ki,EP2,6170 nM
same,EC50,hEP4/Gqs5,> 10000 nM
same,Ca2+ Signal-EC50 (nM) FP,hFP,not active
same,Ca2+ Signal-EC50 (nM) TP,hTP,not active
